c1cc(-n2c3ccccc3c3ccccc32)cc(-n2c3ccccc3c3ccccc32)c1
solubility (mole fraction) (in DMSO, 293.15 K): 0.00436 | solubility (mole fraction) (in DMSO, 303.15 K): 0.00443 | solubility (mole fraction) (in DMSO, 313.15 K): 0.00472 | solubility (mole fraction) (in DMSO, 323.15 K): 0.00505 | solubility (mole fraction) (in NMP, 283.15 K): 0.062 | solubility (mole fraction) (in NMP, 293.15 K): 0.0702 | solubility (mole fraction) (in NMP, 303.15 K): 0.0761 | solubility (mole fraction) (in NMP, 313.15 K): 0.0801 | solubility (mole fraction) (in THF, 283.15 K): 0.0507 | solubility (mole fraction) (in THF, 293.15 K): 0.0528 | solubility (mole fraction) (in THF, 303.15 K): 0.0598 | solubility (mole fraction) (in THF, 313.15 K): 0.0792 | solubility (mole fraction) (in acetonitrile, 283.15 K): 0.000243 | solubility (mole fraction) (in acetonitrile, 293.15 K): 0.000311 | solubility (mole fraction) (in acetonitrile, 303.15 K): 0.000363 | solubility (mole fraction) (in acetonitrile, 313.15 K): 0.000483 | solubility (mole fraction) (in dichloromethane, 273.15 K): 0.0949 | solubility (mole fraction) (in dichloromethane, 283.15 K): 0.107 | solubility (mole fraction) (in dichloromethane, 293.15 K): 0.112 | solubility (mole fraction) (in dichloromethane, 303.15 K): 0.139 | solubility (mole fraction) (in ethanol, 283.15 K): 0.000448 | solubility (mole fraction) (in ethanol, 293.15 K): 0.000561 | solubility (mole fraction) (in ethanol, 303.15 K): 0.000802 | solubility (mole fraction) (in ethanol, 313.15 K): 0.00109 | solubility (mole fraction) (in ethyl acetate, 283.15 K): 0.00426 | solubility (mole fraction) (in ethyl acetate, 293.15 K): 0.00599 | solubility (mole fraction) (in ethyl acetate, 303.15 K): 0.00827 | solubility (mole fraction) (in ethyl acetate, 313.15 K): 0.00879 | solubility (mole fraction) (in isopropanol, 283.15 K): 4.55e-05 | solubility (mole fraction) (in isopropanol, 293.15 K): 5.9e-05 | solubility (mole fraction) (in isopropanol, 303.15 K): 6.95e-05 | solubility (mole fraction) (in isopropanol, 313.15 K): 0.00011 | solubility (mole fraction) (in methanol, 283.15 K): 4.36e-05 | solubility (mole fraction) (in methanol, 293.15 K): 6.14e-05 | solubility (mole fraction) (in methanol, 303.15 K): 9.66e-05 | solubility (mole fraction) (in methanol, 313.15 K): 0.000108 | solubility (mole fraction) (in n-butanol, 283.15 K): 0.000122 | solubility (mole fraction) (in n-butanol, 293.15 K): 0.00017 | solubility (mole fraction) (in n-butanol, 303.15 K): 0.000217 | solubility (mole fraction) (in n-butanol, 313.15 K): 0.000318 | solubility (mole fraction) (in n-hexane, 283.15 K): 0.000183 | solubility (mole fraction) (in n-hexane, 293.15 K): 0.000259 | solubility (mole fraction) (in n-hexane, 303.15 K): 0.000342 | solubility (mole fraction) (in n-hexane, 313.15 K): 0.000381 | solubility (mole fraction) (in toluene, 283.15 K): 0.0263 | solubility (mole fraction) (in toluene, 293.15 K): 0.0316 | solubility (mole fraction) (in toluene, 303.15 K): 0.0336 | solubility (mole fraction) (in toluene, 313.15 K): 0.0445

From BigSolDB 2.1
